ChEMBL document CHEMBL1158819, “Zyzzyanones B-D, dipyrroloquinones from the marine sponge Zyzzya fuliginosa” (J Nat Prod, 2005)
Values after ≈ are worked out from the molar mass of the structure shown.

Test: Cytotoxicity against mouse EAC cells
Format: functional, cell-based
Conditions: Ehrlich
`CNCCc1c[nH]c2c1C(=O)c1c(-c3ccc(O)cc3)c[nH]c1C2=O` [ZYZZYANONE B] gave an IC50 of 25 µg/mL (≈ 74.5 µM). `CN(C=O)CCc1cn(C)c2c1C(=O)c1c(-c3ccc(O)cc3)c[nH]c1C2=O` [ZYZZYANONE C] showed an IC50 of 25 µg/mL (≈ 66.2 µM). `CN(C=O)CCc1c[nH]c2c1C(=O)c1c(-c3ccc(O)cc3)c[nH]c1C2=O` [ZYZZYANONE D] gave an IC50 of 25 µg/mL (≈ 68.8 µM).
